Laboratory results as given in ChEMBL document CHEMBL3244023, “A structure-carcinogenicity study of 4-nitroquinoline 1-oxides using the SIMCA method of pattern recognition” (J Med Chem, 1978).

Legend:
[1] = Lipophilicy, log P of the compound; type: physicochemical; details: octanol/water
Mus musculus = assay: Carcinogenicity in mouse assessed as tumor development administered sc in left groin 6 times at 10-day interval; type: toxicity, organism-based; details: in vivo

logP [1] | Structure (SMILES) | Activity (Mus musculus)
1 | O=[N+]([O-])c1cc[n+]([O-])c2c(F)cccc12 | 
0.76 | O=[N+]([O-])c1cc[n+]([O-])c2c([N+](=O)[O-])cccc12 | Non-toxic
0.45 | O=[N+]([O-])c1ccc2c([N+](=O)[O-])cc[n+]([O-])c2c1 | Non-toxic
2.05 | CC(C)(C)c1ccc2c(c1)c(NO)cc[n+]2[O-] | Non-toxic
1.48 | Cc1cccc2c([N+](=O)[O-])cc[n+]([O-])c12 | Toxic
3.11 | CCCCc1ccc2c(c1)c([N+](=O)[O-])cc[n+]2[O-] | Toxic
0.9 | O=[N+]([O-])c1ccc2c(c1)c([N+](=O)[O-])cc[n+]2[O-] | 
1.4 | O=[N+]([O-])c1cc[n+]([O-])c2ccc(Cl)cc12 | Toxic
2.49 | O=[N+]([O-])c1cc[n+]([O-])c2cc(Cl)c(Cl)cc12 | Toxic
0.42 | O=C(O)c1ccc2c(c1)c([N+](=O)[O-])cc[n+]2[O-] | 
1.75 | O=[N+]([O-])c1cc[n+]([O-])c2cccc(Cl)c12 | Toxic
1.33 | O=[N+]([O-])c1c(Cl)c[n+]([O-])c2ccccc12 | 
1.25 | O=[N+]([O-])c1c(F)c[n+]([O-])c2ccccc12 | 
1.99 | O=[N+]([O-])c1c(Br)c[n+]([O-])c2ccccc12 | Toxic

The remaining lines, values behind:

Structure (SMILES) | logP [1] | Activity (Mus musculus)
Cc1cc([N+](=O)[O-])c2ccccc2[n+]1[O-] | 1.25 | Toxic
CCc1cc([N+](=O)[O-])c2ccccc2[n+]1[O-] | 1.76 | Toxic
O=[N+]([O-])c1cccc2c1c([N+](=O)[O-])cc[n+]2[O-] | 0.95 | 
CC(C)(C)c1cc([N+](=O)[O-])c2ccccc2[n+]1[O-] | 1.07 | 
CCc1c(C)c([N+](=O)[O-])c2ccccc2[n+]1[O-] | 2.56 | 
CCCCCCc1ccc2c(c1)c([N+](=O)[O-])cc[n+]2[O-] | 3.26 | Non-toxic
CCCCCCc1ccc2c(c1)c(NO)cc[n+]2[O-] | 3.35 | Non-toxic
[O-][n+]1ccc(NO)c2cc(C3CCCCC3)ccc21 | 2.89 | Non-toxic
O=[N+]([O-])c1cc[n+]([O-])c2ccc(C3CCCCC3)cc12 | 2.8 | Non-toxic
Cc1cccc2c1c([N+](=O)[O-])cc[n+]2[O-] | 1.25 | Toxic
Cc1ccc2c(c1)c([N+](=O)[O-])cc[n+]2[O-] | 1.24 | Toxic
Cc1ccc2c([N+](=O)[O-])cc[n+]([O-])c2c1 | 1.49 | Toxic
CC(C)(C)c1ccc2c(c1)c([N+](=O)[O-])cc[n+]2[O-] | 3.06 | 
O=[N+]([O-])c1cc[n+]([O-])c2cc(Cl)ccc12 | 1.75 | Toxic
O=[N+]([O-])c1ccc2c(c1)c(NO)cc[n+]2[O-] | -0.28 | Toxic
CCCCc1ccc2c(c1)c(NO)cc[n+]2[O-] | 2.1 | Toxic
Cc1c[n+]([O-])c2ccccc2c1[N+](=O)[O-] | 1.24 | 
COc1c[n+]([O-])c2ccccc2c1[N+](=O)[O-] | 0.43 | Non-toxic
O=[N+]([O-])c1cc[n+]([O-])c2ccccc12 [4-NITROQUINOLINE-1-OXIDE] | 1.01 | Toxic
